Assay results from publication PMC8838898, “Identification of Novel Cannabinoid CB2 Receptor Agonists from Botanical Compounds and Preliminary Evaluation of Their Anti-Osteoporotic Effects” (Molecules, 2022).
Read-outs that look alike come from different tables or passages of the source.

Columns and labels:
CB2R [1] = molecular target: T1, CB2R (Homo sapiens, UniProt P34972); experiment: double luciferase reporter screening system in HEK293-CB2 cells; format: cell-based
T1 construct: expressed in transfected cells; host or cells: HEK293 cells stably transfected with pIRES2-EGFP-CB2, pGL4.29 [luc2P/CRE/Hygro] and pRL-TK
Method: To generate the HEK293-CB2 cells, 5 × 10^5 HEK293 cells were cultured in a 60 mm culture dish for 12 h, washed with PBS, and then transfected with Lipofectamine 3000 reagent containing a test reporter plasmid, control reporter plasmid encoding Renilla luciferase, and effector plasmid. The ratio of the transfection plasmid pIRES2-EGFP-CB2, pGL4.29 [luc2P/CRE/Hygro], and pRL-TK was 2 μg, 10 μg, and 1μg, respectively. After a 24-htransfection, cells were selected and cultured in the medium containing G418 (800 μg·mL^−1) and hygromycin (400 μg·mL^−1) for two weeks. The surviving cells were picked and expanded as HEK293-CB2R cells.
Several aspects of the high-throughput screening system were optimized to ensure efficient and accurate application of the system for high-throughput data collection. To conduct high-throughput assays in 96-well plates, the number of cells seeded per well, incubation time, drug and AM630 concentrations, and the DMSO content were optimized. The dual luciferase assay was performed as described previously. […] Subsequently, the quantitative evaluation indexes of the high-throughput screening system, including the signal-to-background ratio, S/B = Msignal/Mbackground; signal window, SW = Msignal − Mbackground; signal-to-noise ratio, S/N = (Msignal − Mbackground)/SDbackground; signal background coefficient of variation, CV(%) = 100 × SDsignal/Msignal; and Z’ factor were determined to ensure its efficient and accurate application of the system in high-throughput data collection. Here, Z′ = 1 − 3(SDsignal + SDbackground)/|Msignal − Mbackground| [25], where M represents an average of the relative luminescence value and SD is the standard deviation of M.
The HEK293-CB2 cells from 10–40 passages were separately inoculated into 96-well plates at 5 × 10^3 cells per well. […] The results were expressed as relative luminescence values.
The HEK293-CB2 cells were inoculated on a 96-well culture plate with a density of 5 × 10^3 cells per well. […] The relative luminescence value was used to express the expression of CB2R.
Furthermore, the activation of the compounds on CB2R was also verified by using the CB2R inverse agonist AM630. The HEK293-CB2 cells were inoculated on a 6-well culture plate at a density of 5 × 10^4 cells per well. […] The expression of the CB2R gene is expressed by the relative luminescence value.

CB2R [2] = molecular target: T1, CB2R; experiment: forskolin-stimulated cAMP accumulation assay in HEK293-CB2 cells; format: cell-based; details: forskolin 30 min, then compound 6 h, read-out: IC50 of inhibition of forskolin-stimulated cAMP
Method: After treatment, the cell supernatant was diluted with PBS (pH 7.2–7.4). The cells were lysed by repeated freeze–thaw cycles and being centrifuged for 20 min at 2000–3000 r.p.m. The concentration of cAMP in the cell lysate was determined according to the instructions of the cAMP kit.

mBMSCs cells = experiment: proliferation of BMSCs (CCK8); format: cell-based, rat; details: 1 μM, 48 h
Method: (§1) BMSCs were isolated from the femur of 1-day-old Wistar rats and cultured in a dish containing α-MEM supplemented with 10% FBS, 100 U·mL^−1 penicillin, […] streptomycin, and 1% L-Glutaminea in a humidified atmosphere of 5% CO2 for 24 h. The medium was changed every three days. The subculture cells (passage 2–4) were used for subsequent experiments. BMSCs were identified in terms of the morphological character and properties of differentiation into osteoblasts. This experiment was approved by the Bioethics Committee of Zhejiang University of Traditional Chinese Medicine.
(§2) The BMSCs cells were inoculated in a 96-well plate at a density of 1 × 10^4 cells per well and cultured at 37 °C for 24 h. […] The optical density (OD) value was determined at 450 nm. The BMSCs cells were treated as described above and cultured for seven days to measure the ALP activity according to the kit instructions or cultured for five days to stain ALP in the osteoblasts according to the following procedures. Briefly, cells were washed with pre-cooled PBS twice and stained with the alkaline phosphatase staining solution for 30 min at 37 °C. After discarding the dye solution, cells were rinsed with distilled water three times and observed and photographed under a light microscope.

[3] = tested on: osteoblasts derived from mBMSC; experiment: bone mineralization nodules of osteoblasts (alizarin red staining); format: cell-based, rat; details: 1 μM, 14 days
Method: as §1
Cells were treated as described above for 14 days to observe the bone mineralized nodule formation using alizarin red staining solution. Briefly, the cells were washed with pre-cooled PBS twice, fixed with 3.7% formaldehyde for 10 min, and stained with ARS dye (pH = 4.2) containing 40 mM alizarin redstain for 10 min. The morphology and number of bone mineralized nodules of osteoblasts were observed under a light microscope.

[4] = tested on: osteoblasts derived from mBMSC; experiment: ALP activity of osteoblasts derived from BMSCs; format: cell-based, rat; details: 1 μM, seven days
Method: as §1, §2

[5] = tested on: osteoclasts derived from RAW264.7 cells; experiment: TRAP activity of osteoclasts derived from RAW264.7 cells induced with RANKL; format: cell-based, murine; details: 1 μM, three-day treatment; enzyme activity and cell staining
Method: The murine macrophage RAW264.7 cell line, which has the potential to differentiate into osteoclasts under the induction of RANKL, was obtained from the Cell Bank of the Chinese Academy of Sciences (Shanghai, China). The cells were cultured in DMEM containing 10% (v/v), 1% (v/v) penicillin, and streptomycin (Beyotime, Shanghai, China) at 37 °C in humidified air with 5% CO2, and then subcultured every two days. For induction of the osteoclasts, RAW264.7 cells were incubated with 25 ng·mL^−1 RANKL for 72 h. Osteoclasts were identified by TRAP staining.
RAW264.7 cells were inoculated in a 96-well plate at a density of 1 × 10^4 cells per well. After a 24-h culture at 37 °C, cells were treated with the test compounds for 48 h and cell viability was determined with the CCK-8 kit according to the instructions. RAW264.7 cells were inoculated on a 96-well culture plate at a density of 1 × 10^4 cells per well, induced with […] of nuclear factor-κB receptor activator ligand (RANKL) to differentiate into osteoclasts for 72 h. […] Briefly, the cells were washed with sodium thiobarbital twice, lysed with 0.1% Triton X-100 (10 μL per well) for 10 min, and then incubated with 100 μL of TRAP reaction solution (0.02 g disodium nitrophenyl phosphate and 0.1 g potassium sodium tartrate dissolved in 10 mL deionized water with pH adjusted to 3.5 by addition of 1 mol·L^−1 HCl) for 30 min at 37 °C. The reaction was terminated with 1 mol·L^−1 of NaOH solution (100 μL per well) and the absorbance was determined at a wavelength of 405 nm. The TRAP activity was expressed by the amount (mole) of p-nitrophenol produced by 100 osteoclasts. For staining, the osteoclasts were treated as described above, stained according to the instruction of the TRAP staining kit, and observed and photographed under a light microscope.

[6] = HEK293-CB2 cells, pretreated with 1 μM AM630 for 30 min, then 1 μM compound 6 h

T1 sequence (P34972 whole entry): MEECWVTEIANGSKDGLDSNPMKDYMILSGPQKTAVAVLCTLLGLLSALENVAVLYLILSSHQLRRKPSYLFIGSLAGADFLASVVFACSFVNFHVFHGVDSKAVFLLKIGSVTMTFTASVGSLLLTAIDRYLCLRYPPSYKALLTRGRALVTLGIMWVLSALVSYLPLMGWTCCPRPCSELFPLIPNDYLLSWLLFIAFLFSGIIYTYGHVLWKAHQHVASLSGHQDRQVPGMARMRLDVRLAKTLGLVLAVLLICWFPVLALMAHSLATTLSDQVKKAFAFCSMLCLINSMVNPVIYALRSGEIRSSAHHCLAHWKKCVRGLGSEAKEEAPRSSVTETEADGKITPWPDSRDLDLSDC

COc1ccc(C(=O)c2c(C)n(CCN3CCOCC3)c3cc(I)ccc23)cc1 [AM630, reference compound]
reversal effect on the agonistic effect of HU308 on CB2R (CB2R [1]): mitigated

COc1cc(O)c(C(=O)/C=C/c2ccc(O)cc2)c(OC)c1 [Flavokawain C]
IC50 (CB2R [2]): 5170 nM | agonistic effect on CB2R (relative luminescence / fluorescence expression in HEK293-CB2) (CB2R [1]; 1 μM, 6 h, HEK293-CB2 cells): could increase the fluorescence expression | reversal of the agonistic effect on CB2R by AM630 (CB2R [1]; [6]): could be abated by AM630 | proliferation of mBMSCs cells (mBMSCs cells): had no effect on the proliferation

COC1=CC(=O)O[C@@H](CCc2ccc3c(c2)OCO3)C1 [Dihydromethysticin]
IC50 (CB2R [2]): 35.7 nM | agonistic effect on CB2R (relative luminescence / fluorescence expression in HEK293-CB2) (CB2R [1]; 1 μM, 6 h, HEK293-CB2 cells): could increase the fluorescence expression | reversal of the agonistic effect on CB2R by AM630 (CB2R [1]; [6]): could be abated by AM630 | matrix mineralization of osteoblasts derived from mBMSC [3]: increased | proliferation of mBMSCs cells (mBMSCs cells): increased | ALP activity of osteoblasts derived from mBMSC [4]: increased

O=c1cc(-c2ccc(O)c(O)c2)oc2c([C@@H]3O[C@H](CO)[C@@H](O)[C@H](O)[C@H]3O)c(O)cc(O)c12 [Orientin]
IC50 (CB2R [2]): 111 nM | agonistic effect on CB2R (relative luminescence / fluorescence expression in HEK293-CB2) (CB2R [1]; 1 μM, 6 h, HEK293-CB2 cells): could increase the fluorescence expression | reversal of the agonistic effect on CB2R by AM630 (CB2R [1]; [6]): could be abated by AM630 | proliferation of mBMSCs cells (mBMSCs cells): had no effect on the proliferation

COc1cc(O)ccc1/C=C/C(=O)c1ccc(O)cc1 [Echinatin]
IC50 (CB2R [2]): 90.5 nM | agonistic effect on CB2R (relative luminescence / fluorescence expression in HEK293-CB2) (CB2R [1]; 1 μM, 6 h, HEK293-CB2 cells): could increase the fluorescence expression | reversal of the agonistic effect on CB2R by AM630 (CB2R [1]; [6]): could be abated by AM630 | TRAP activity of osteoclasts derived from RAW264.7 cells induced with RANKL [5]: inhibited TRAP activity | matrix mineralization of osteoblasts derived from mBMSC [3]: increased | proliferation of mBMSCs cells (mBMSCs cells): increased | ALP activity of osteoblasts derived from mBMSC [4]: increased

COc1ccc(/C=C/C(=O)c2c(O)cc(OC)cc2OC)cc1 [Flavokawain A]
IC50 (CB2R [2]): 902 nM | agonistic effect on CB2R (relative luminescence / fluorescence expression in HEK293-CB2) (CB2R [1]; 1 μM, 6 h, HEK293-CB2 cells): could increase the fluorescence expression | reversal of the agonistic effect on CB2R by AM630 (CB2R [1]; [6]): could be abated by AM630 | TRAP activity of osteoclasts derived from RAW264.7 cells induced with RANKL [5]: inhibited TRAP activity | matrix mineralization of osteoblasts derived from mBMSC [3]: increased | proliferation of mBMSCs cells (mBMSCs cells): increased | ALP activity of osteoblasts derived from mBMSC [4]: increased

C[C@H]1[C@H](C)CC[C@]2(C)CC[C@]3(C)C(=CC(=O)[C@@H]4[C@@]5(C)CC[C@@H](O)[C@](C)(C(=O)O)[C@@H]5CC[C@]43C)[C@H]12 [11-Keto-beta-boswellic acid]
IC50 (CB2R [2]): 73 nM | agonistic effect on CB2R (relative luminescence / fluorescence expression in HEK293-CB2) (CB2R [1]; 1 μM, 6 h, HEK293-CB2 cells): could increase the fluorescence expression | reversal of the agonistic effect on CB2R by AM630 (CB2R [1]; [6]): could be abated by AM630 | TRAP activity of osteoclasts derived from RAW264.7 cells induced with RANKL [5]: inhibited TRAP activity | matrix mineralization of osteoblasts derived from mBMSC [3]: increased | proliferation of mBMSCs cells (mBMSCs cells): increased | ALP activity of osteoblasts derived from mBMSC [4]: increased

CC(=O)OCC1=C[C@@H]2OC(=O)C3=CO[C@@H](O[C@@H]4O[C@H](CO)[C@@H](O)[C@H](O)[C@H]4O)[C@H]1[C@@H]32 [Asperuloside]
IC50 (CB2R [2]): 281 nM | agonistic effect on CB2R (relative luminescence / fluorescence expression in HEK293-CB2) (CB2R [1]): could increase the fluorescence expression | reversal of the agonistic effect on CB2R by AM630 (CB2R [1]): could be abated by AM630 | proliferation of mBMSCs cells (mBMSCs cells): had no effect on the proliferation

C=C[C@@]1(C)CC(=O)[C@]2(O)[C@@]3(C)[C@@H](O)CCC(C)(C)[C@@H]3[C@H](O)[C@H](OC(C)=O)[C@@]2(C)O1 [forskolin, reference compound]
signal average and standard deviation (positive control group) (CB2R [1]; screening system validation, forskolin 1 μM): 63.3 ± 4.4%

COc1cc(/C=C/c2ccccc2)oc(=O)c1 [Desmethoxyyangonin]
IC50 (CB2R [2]): 29.9 nM | agonistic effect on CB2R (relative luminescence / fluorescence expression in HEK293-CB2) (CB2R [1]; 1 μM, 6 h, HEK293-CB2 cells): could increase the fluorescence expression | reversal of the agonistic effect on CB2R by AM630 (CB2R [1]; [6]): could be abated by AM630 | TRAP activity of osteoclasts derived from RAW264.7 cells induced with RANKL [5]: inhibited TRAP activity | matrix mineralization of osteoblasts derived from mBMSC [3]: increased | proliferation of mBMSCs cells (mBMSCs cells): increased | ALP activity of osteoblasts derived from mBMSC [4]: increased

O=c1c2cc(O)c(O)cc2oc2cc(O)c([C@@H]3O[C@H](CO)[C@@H](O)[C@H](O)[C@H]3O)c(O)c12 [Mangiferin]
IC50 (CB2R [2]): 1170 nM | agonistic effect on CB2R (relative luminescence / fluorescence expression in HEK293-CB2) (CB2R [1]): could increase the fluorescence expression | reversal of the agonistic effect on CB2R by AM630 (CB2R [1]): could be abated by AM630 | TRAP activity of osteoclasts derived from RAW264.7 cells induced with RANKL [5]: inhibited TRAP activity | matrix mineralization of osteoblasts derived from mBMSC [3]: increased | proliferation of mBMSCs cells (mBMSCs cells): increased | ALP activity of osteoblasts derived from mBMSC [4]: increased
